Entries after “also recorded” stand apart in the source; their conditions may differ.
What was measured:
[1] = combination of verapamil and VAD (vincristine, doxorubicin, dexamethasone); cited from earlier work
[2] = pharmacokinetic interaction with co-administered oncolytics in preclinical models; assay type: in vivo; details: several oncolytics
[3] = tested on: P-gp-associated resistance; test: in vivo activity in preclinical animal studies
AML = details: older patients, Mylotarg alone, registration trials; cited from earlier work

**Q.** With COc1ccc(CCN(C)CCCC(C#N)(c2ccc(OC)c(OC)c2)C(C)C)cc1OC (stereo not shown) [verapamil] as the compound, how does the patients responded [1] read?
**A.** 5 of 22

**Q.** What does the source list for O[C@@H](COc1cccc2ncccc12)CN1CCN([C@@H]2c3ccccc3[C@@H]3[C@H](c4ccccc42)C3(F)F)CC1 [zosuquidar]?
**A.** pharmacokinetic interaction with co-administered chemotherapy [2]: no pharmacokinetic interaction; also recorded: minimal pharmacokinetic (PK) interactions; in vivo activity [3]: good in vivo activity

**Q.** With gemtuzumab ozogamicin [Mylotarg] as the compound, how does the “rate of complete remission (CR+CRp)” value (AML) read?
**A.** 26%
